Literature values as cited in patent US20160158245A1, “PHARMACEUTICAL FORMULATION CONTAINING THIENOTRIAZOLODIAZEPINE COMPOUNDS” (ONCOETHIX GmbH, priority 2013, published 2016).

Tested on: BRD4 and c-MYC
Conditions: cited from earlier work

For `Cc1sc2c(c1C)C(c1ccc(Cl)cc1)=N[C@@H](CC(=O)OC(C)(C)C)c1nnc(C)n1-2` [JQ1], the “BRD4 and c-MYC down-regulation” value is listed as “induce BRD4 down-regulation and subsequently c-MYC down-regulation”.
